Experimental data taken from US20220105058A1, “USE OF 3-O-SULFAMATE-16,16-DIMETHYL-D-HOMOEQUILENIN TO TREAT ONCOLOGICAL DISEASES” (priority 2018, published 2022).

Key:
[1] = second class: low solubility and high permeability; first class: high solubility and high permeability; cited from earlier work
[2] = release of free hormone; cited from earlier work
[3] = system: triple negative breast cancer MDA-MB-231 cell line; test: cell proliferation in MDA-MB-231; format: cell-based

Structure (SMILES) | class according to the biopharmaceutical classification system (BCS) [1] | further results
CC(C)(C#N)c1cc(Cn2cncn2)cc(C(C)(C)C#N)c1 [anastrazole] | first class | 
C[C@]12CC[C@@H]3c4ccc(OS(N)(=O)=O)cc4CC[C@H]3[C@@H]1CCC2=O [estrone sulfamate] |  | uterotropic activity [2]: strong uterotropic activity
COc1cc([C@@H]2c3cc4c(cc3[C@@H](O[C@@H]3O[C@@H]5CO[C@@H](C)O[C@H]5[C@H](O)[C@H]3O)[C@H]3COC(=O)[C@H]23)OCO4)cc(OC)c1O [etoposide, reference compound] |  | inhibition of cell proliferation [3]: similar
N#Cc1ccc(C(c2ccc(C#N)cc2)n2cncn2)cc1 [letrozole] | first class | 
